# The source made the active and inactive calls. No cut-off for these calls is given here.
# Experiments:
# U-937 = assay: Antiproliferative activity against human U-937 cells assessed as reduction in cell viability after 48 hrs by MTT assay; details: U-937, 48 h
# Histone deacetylase 11 = molecular target: T1, Histone deacetylase 11 (Homo sapiens, UniProt Q96DB2); assay: Inhibition of human recombinant HDAC11 using Boc-Lys(triflouroacetyI)-AMC substrate incubated for 2 hrs by fluorescence based assay
# T1 sequence (Q96DB2 whole entry): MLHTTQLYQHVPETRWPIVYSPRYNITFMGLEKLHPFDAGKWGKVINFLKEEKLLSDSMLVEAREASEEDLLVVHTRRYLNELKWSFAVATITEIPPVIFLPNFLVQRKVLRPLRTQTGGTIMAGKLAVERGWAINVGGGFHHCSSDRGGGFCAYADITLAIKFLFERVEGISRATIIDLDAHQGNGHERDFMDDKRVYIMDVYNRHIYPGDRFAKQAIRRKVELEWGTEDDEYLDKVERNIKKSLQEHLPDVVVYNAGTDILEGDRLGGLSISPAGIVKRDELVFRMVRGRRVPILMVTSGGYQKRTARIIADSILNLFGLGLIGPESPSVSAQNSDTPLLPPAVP
# MV4-11 = assay: Up regulation of acetylated histoneH4 in expression in human MV4-11 cells at 100 nM measured after 24 hrs by Western blot analysis; format: functional, cell-based
# Histone deacetylase 8 = molecular target: T2, Histone deacetylase 8 (Homo sapiens, UniProt Q9BY41); assay: Inhibition of human recombinant HDAC8 using Boc-Lys(triflouroacetyI)-AMC substrate incubated for 2 hrs by fluorescence based assay
# T2 sequence (Q9BY41 whole entry): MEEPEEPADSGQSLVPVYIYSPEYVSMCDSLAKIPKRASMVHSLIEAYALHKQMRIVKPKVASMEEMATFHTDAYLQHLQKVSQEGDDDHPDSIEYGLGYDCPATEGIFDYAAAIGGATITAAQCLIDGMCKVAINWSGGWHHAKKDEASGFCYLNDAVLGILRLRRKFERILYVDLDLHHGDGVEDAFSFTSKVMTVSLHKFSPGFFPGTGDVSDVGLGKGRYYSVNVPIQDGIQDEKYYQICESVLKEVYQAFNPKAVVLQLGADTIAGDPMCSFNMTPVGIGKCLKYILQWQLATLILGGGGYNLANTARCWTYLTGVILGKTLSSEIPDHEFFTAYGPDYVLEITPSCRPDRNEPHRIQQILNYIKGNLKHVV
# MOLM-13 = assay: Antiproliferative activity against human MOLM-13 cells assessed as reduction in cell viability measured after 48 hrs by multiplate reader method; details: MOLM-13, 48 h
# HL-60 = assay: Antiproliferative activity against human HL-60 cells assessed as reduction in cell viability after 48 hrs by multiplate reader method; details: HL-60, 48 h
# [1] = molecular target: T3, Protein deacetylase HDAC6 (Homo sapiens, UniProt Q9UBN7); assay: Inhibition of human recombinant HDAC6 using Boc-Lys(acetyl)-AMC substrate incubated for 2 hrs by fluorescence based assay
# T3 sequence (Q9UBN7 whole entry): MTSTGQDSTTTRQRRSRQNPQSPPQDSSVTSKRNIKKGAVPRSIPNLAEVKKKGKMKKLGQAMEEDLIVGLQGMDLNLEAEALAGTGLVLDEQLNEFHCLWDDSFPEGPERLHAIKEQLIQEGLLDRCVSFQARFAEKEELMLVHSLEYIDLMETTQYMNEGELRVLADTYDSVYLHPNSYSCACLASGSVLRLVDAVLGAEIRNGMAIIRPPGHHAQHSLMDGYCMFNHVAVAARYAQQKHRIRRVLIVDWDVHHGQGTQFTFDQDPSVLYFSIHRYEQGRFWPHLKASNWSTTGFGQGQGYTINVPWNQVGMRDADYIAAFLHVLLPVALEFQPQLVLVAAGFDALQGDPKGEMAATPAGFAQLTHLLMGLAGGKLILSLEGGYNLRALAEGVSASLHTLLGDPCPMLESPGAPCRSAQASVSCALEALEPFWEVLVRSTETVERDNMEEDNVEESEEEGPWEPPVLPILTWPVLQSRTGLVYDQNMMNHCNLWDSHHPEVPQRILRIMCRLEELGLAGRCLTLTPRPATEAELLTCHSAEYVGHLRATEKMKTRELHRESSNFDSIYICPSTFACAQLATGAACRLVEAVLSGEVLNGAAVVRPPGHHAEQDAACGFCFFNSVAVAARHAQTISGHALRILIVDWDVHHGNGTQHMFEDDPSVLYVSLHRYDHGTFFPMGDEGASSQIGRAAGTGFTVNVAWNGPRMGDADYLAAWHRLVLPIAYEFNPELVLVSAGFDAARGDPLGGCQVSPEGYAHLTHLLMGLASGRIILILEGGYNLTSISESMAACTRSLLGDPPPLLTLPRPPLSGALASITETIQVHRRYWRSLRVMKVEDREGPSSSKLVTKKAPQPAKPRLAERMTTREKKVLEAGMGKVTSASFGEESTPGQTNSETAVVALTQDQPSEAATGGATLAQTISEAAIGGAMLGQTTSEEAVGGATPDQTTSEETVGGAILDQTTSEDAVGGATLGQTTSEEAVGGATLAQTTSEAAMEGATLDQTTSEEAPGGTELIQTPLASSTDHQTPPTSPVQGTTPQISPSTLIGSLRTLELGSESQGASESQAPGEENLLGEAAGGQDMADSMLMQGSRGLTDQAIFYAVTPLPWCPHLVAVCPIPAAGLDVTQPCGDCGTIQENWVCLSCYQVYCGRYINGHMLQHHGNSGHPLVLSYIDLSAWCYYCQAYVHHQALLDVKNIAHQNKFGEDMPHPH
IC50 (U-937) [µM],IC50 (Histone deacetylase 11) [µM],IC50 (Histone deacetylase 8) [µM],IC50 (MOLM-13) [µM],IC50 (HL-60) [µM],IC50 [1] [µM],SMILES,Activity (MV4-11)
0.161,> 5,> 5,0.103,0.0517,> 10,CCCNNC(=O)c1ccc(CNC(=O)/C=C/c2ccccc2)cc1,Active
0.0605,> 5,> 5,0.0404,0.0262,> 10,CCCNNC(=O)c1ccc(CNC(=O)c2cc3ccccc3[nH]2)cc1,Active

# — ChEMBL document CHEMBL5042504 (J Med Chem, 2022)
